The source of these data is US7943137B2, “FPRL1 ligands and use thereof” (Takeda Pharmaceutical Company Limited, priority 2002, dated 2011).

The subject of one assay is FPRL1-GFP fusion protein. As to the kind of experiment: Intracellular transition (internalization) of FPRL1-GFP fusion protein expressed in CHO cells. To be noted: 37° C., one hour, Cellomics ArrayScan. Format: cell-based, human. Here is the method:
CHO cell line, in which a protein, wherein GFP (Green Fluorescent Protein) is fused to the C-terminus of human FPRL1, is stably expressed, was established using an expression plasmid for animal cells by publicly known method. For assay of intracellular transition of the protein, the cells at growth phase was seeded at the concentration of 40000 cells/well on 96-well plate (Packard, View-Plate™-96, Black), and cultured for overnight at 37° C. under 5% CO2. Firstly, the cells into the well were washed with assay buffer (HBSS (GibcoBRL) supplemented with 0.1% bovine serum albumin (BSA)). Then, 100 μl of the assay buffer containing a test sample were added to the well and incubated at 37° C. under 5% CO2 for one hour. Subsequently, 100 μl/well of cell fixation solution (PBS containing 4% paraformaldehyde (Ca/Mg free)) were added to the well and stood at room temperature for 30 minutes. After removing the cell fixation solution and washing the cells with Ca/Mg free PBS, a labeling solution (3.13 μg/ml of wheat germ aggulutinin (Molecular Probe, W-849) and 5 μg/ml of Hoechst-containing Ca/Mg free PBS) was added (50 μl/well) and stood at room temperature for 20 minutes. After removing the labeling solution, the cells were washed with Ca/Mg free PBS (200 μl/well) to replace the same (200 μl/well). […]

Assay [1] has as its system FPRL1-GFP fusion protein-expressing CHO cells. As to the kind of experiment: Cell migration stimulating activity to FPRL1-GFP fusion protein-expressing CHO cells. The format is cell-based, human. To be noted: chemotaxis chamber, 37° C., 4 hours, FIG. 24. As for the experimental part:
Using FPRL1-GFP fusion protein-expressing CHO cells, which are described in Example 18, a cell migration activity of the above cells by stimulation using formylated peptide was investigated.
The 96-well disposable chemotaxis chamber (ChemoTx-96, Neuro Probe) was used for assay. Firstly, to bottom well of the chamber, a test sample diluted with DMEM (Invitrogen) containing 0.5% BSA was added. Then, a polycarbonate filter, which is precoated with 10 μg/ml bovine fibronectin (Yagai) on both sides, was fixed on the chamber, and contacted with the test sample. Next, suspension for FPRL1-GFP fusion protein-expressing CHO cells was put onto the filter at 96-well site as a droplet. The chamber was covered, and cultured at 37° C. for 4 hours under conditions of 5% CO2. The cell suspension was prepared as follows: the aforementioned CHO cells at growth phase, which had been precultured in 150 cm^2 flask for culture, were peal off using trypsin/EDTA; the cell suspension obtained was centrifuged to get cell precipitation; and after washing with PBS once, the cells were resuspended in DMEM medium containing 0.5% BSA at the concentration of 3.6×10^6 cells/ml. […] For this filter, absorbance at 595 nm was measured using microplate reader.

The next assay addresses T1, human FPRL1 (Homo sapiens, UniProt P25090).
T1 construct: expressed in transfected cells; host or cells: CHO cells (clone No. 8)
T1 sequence (P25090 1-351): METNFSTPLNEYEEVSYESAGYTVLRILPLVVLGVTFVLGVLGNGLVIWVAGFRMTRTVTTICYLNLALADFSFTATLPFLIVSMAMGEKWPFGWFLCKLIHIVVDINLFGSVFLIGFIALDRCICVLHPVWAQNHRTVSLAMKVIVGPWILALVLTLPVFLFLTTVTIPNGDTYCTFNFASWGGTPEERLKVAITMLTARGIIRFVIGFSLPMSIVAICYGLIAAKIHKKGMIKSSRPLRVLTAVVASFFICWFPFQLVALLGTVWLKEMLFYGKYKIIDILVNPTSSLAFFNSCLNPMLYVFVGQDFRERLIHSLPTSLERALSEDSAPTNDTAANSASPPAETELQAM
As to the kind of experiment: Inhibiting activity for intracellular cAMP production in human FPRL1-expressing CHO cells. Format: cell-based. To be noted: comparison of purified ligand and chemical preparation, FIG. 14. The source says: The term “Peptide (nM)” on horizontal axis and “Inhibition (5)” on vertical axis means a concentration of peptide (nM) and an inhibiting activity for intracellular cAMP production (Inhibition (%)), respectively. Closed triangle represents an activity of the intrinsic FPRL1 ligand P1, which has been purified in Example 7. It is derived from fr. 24-25 of the final purified preparation uRPC C2/C18 SC2.1/10. The concentration for peptide is deduced from the absorbance at 215 nm of final purification chromatogram. Closed circle indicates an activity of 16 amino acid peptide containing N-terminal fifteen amino acids of porcine cytochrome B, at which synthetic N-terminus is formylated (formyl-MTNIRKSHPLMKIINN).
Activity of porcine intrinsic FPRL1 ligand P1, which was purified in Example 7, and activity of 16 amino acid-peptide (formyl-MTNIRKSHPLMKIINN, SEQ ID NO: 18), comprising 15 amino acids at N-terminus of N-terminally formylated porcine cytochrome B, wherein the sequence was deduced from structure analysis, were compared using an inhibiting activity for intracellular cAMP production in human […] CHO cells as an index (FIG. 14).
Background: Changes in cAMP serve as a functional read-out for many G protein-coupled receptors.

Where a SMILES comes first, the peptide text is derived from it. Where no end group is shown, it is not given here. The star is where a group is joined. For = O=C*

Take `CSCC[C@H](NC=O)C(=O)N[C@@H](Cc1ccccc1)C(=O)N[C@@H](C)C(=O)N[C@@H](CC(=O)O)C(=O)N[C@@H](CCCNC(=N)N)C(=O)N[C@@H](Cc1c[nH]c2ccccc12)C(=O)N[C@@H](CC(C)C)C(=O)N[C@@H](Cc1ccccc1)C(=O)N[C@@H](CO)C(=O)N[C@H](C(=O)N[C@@H](CC(N)=O)C(=O)N[C@@H](Cc1c[nH]cn1)C(=O)N[C@@H](CCCCN)C(=O)O)[C@@H](C)O` [hfCYOX-1(1-13)] (For-MFADRWLFSTNHK-OH; C-terminus assumed): in the assay with FPRL1-GFP fusion protein, the “intracellular transition of FPRL1-GFP protein (MemCyto Above Threshold)” value is listed as “concentration-dependent transition of FPRL1-GFP protein from cell membrane to cytoplasm”. Moreover, the “cell migration stimulating activity (absorbance at 595 nm)” value in assay [1] is “bell-shaped dose-dependent cell migration stimulating activity”.
For `CSCC[C@H](NC=O)C(=O)N[C@@H](Cc1ccccc1)C(=O)N[C@H](C(=O)N[C@@H](CC(N)=O)C(=O)N[C@@H](CCCNC(=N)N)C(=O)N[C@@H](Cc1c[nH]c2ccccc12)C(=O)N[C@@H](CC(C)C)C(=O)N[C@@H](Cc1ccc(O)cc1)C(=O)N[C@@H](CO)C(=O)N[C@H](C(=O)N[C@@H](CC(N)=O)C(=O)N[C@@H](Cc1c[nH]cn1)C(=O)N[C@@H](CCCCN)C(=O)O)[C@@H](C)O)C(C)C` [pfCYOX-1(1-13)] (For-MFVNRWLYSTNHK-OH; C-terminus assumed) the same measures were “concentration-dependent transition of FPRL1-GFP protein from cell membrane to cytoplasm” and “bell-shaped dose-dependent cell migration stimulating activity”.
In the case of “CHO-Met-Thr-Asn-Ile-Arg-Lys-Ser-His-Pro-Leu-Met-Lys-Ile-Ile-Asn ({CHO}-MTNIRKSHPLMKIIN) [porcine intrinsic FPRL1 ligand P1, purified from porcine stomach; N-terminal peptide of N-formylated porcine cytochrome b]”, the “inhibiting activity for intracellular cAMP production” value in the assay with human FPRL1 is reported as “both activities are equivalent”.
Still for that read-out and setting: with “formyl-MTNIRKSHPLMKIINN (For-MTNIRKSHPLMKIINN) [16 amino acid-peptide comprising 15 amino acids at N-terminus of N-terminally formylated porcine cytochrome B]” the entry was “both activities are equivalent”.
